26 compounds from patent US12612409B2, “Pyrrolopyrimidines as CFTR potentiators” (Cystic Fibrosis Foundation, priority 2016, dated 2026) can be followed below.

For assay [1], the target named is T1, recombinant F508del V470 CFTR in Fischer rat thyroid (FRT) cells (Homo sapiens, UniProt P13569, DEL508-508).
T1 construct: expressed in transfected cells
As to the kind of experiment: FRT ion flux assay of F508del CFTR potentiation. In kind it is cell-based. The following applies: FRT cells expressing F508del V470 CFTR, forskolin 20 uM, 27° C. pre-incubation. An outline of the steps:
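Potentiation read as YFP quench ~21 s after iodide buffer addition, as second/initial fluorescence ratio normalised between DMSO (0%) and reference potentiator (100%).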

Assay [2] has as its target T2, CFTR in F508del/F508del primary CF hBE cells (Homo sapiens, UniProt P13569, DEL508-508).
T2 construct: Primary cystic fibrosis human bronchial epithelial (CF hBE) cells were expanded and cultured; endogenous in cells; host or cells: primary CF human bronchial epithelial cells, genotype F508del/F508del
As to the kind of experiment: Ussing chamber electrophysiology assay of CFTR potentiation in F508del/F508del CF bronchial epithelial cells (27° C.). Format: cell-based. An outline of the steps: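 Short-circuit current was recorded under zero-voltage clamp across primary CF bronchial epithelia cultured >30 days at air/liquid interface, bathed apically and basolaterally in HEPES-buffered saline. Sequential additions: amiloride (30 uM), forskolin (10 uM), compound at 4 increasing levels, CFTRinh-172 (20 uM). Responses normalised between DMSO (0%) and maximal positive-control potentiator (100%).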

T2 sequence (P13569 with tags, fused parts or gaps DEL508-508): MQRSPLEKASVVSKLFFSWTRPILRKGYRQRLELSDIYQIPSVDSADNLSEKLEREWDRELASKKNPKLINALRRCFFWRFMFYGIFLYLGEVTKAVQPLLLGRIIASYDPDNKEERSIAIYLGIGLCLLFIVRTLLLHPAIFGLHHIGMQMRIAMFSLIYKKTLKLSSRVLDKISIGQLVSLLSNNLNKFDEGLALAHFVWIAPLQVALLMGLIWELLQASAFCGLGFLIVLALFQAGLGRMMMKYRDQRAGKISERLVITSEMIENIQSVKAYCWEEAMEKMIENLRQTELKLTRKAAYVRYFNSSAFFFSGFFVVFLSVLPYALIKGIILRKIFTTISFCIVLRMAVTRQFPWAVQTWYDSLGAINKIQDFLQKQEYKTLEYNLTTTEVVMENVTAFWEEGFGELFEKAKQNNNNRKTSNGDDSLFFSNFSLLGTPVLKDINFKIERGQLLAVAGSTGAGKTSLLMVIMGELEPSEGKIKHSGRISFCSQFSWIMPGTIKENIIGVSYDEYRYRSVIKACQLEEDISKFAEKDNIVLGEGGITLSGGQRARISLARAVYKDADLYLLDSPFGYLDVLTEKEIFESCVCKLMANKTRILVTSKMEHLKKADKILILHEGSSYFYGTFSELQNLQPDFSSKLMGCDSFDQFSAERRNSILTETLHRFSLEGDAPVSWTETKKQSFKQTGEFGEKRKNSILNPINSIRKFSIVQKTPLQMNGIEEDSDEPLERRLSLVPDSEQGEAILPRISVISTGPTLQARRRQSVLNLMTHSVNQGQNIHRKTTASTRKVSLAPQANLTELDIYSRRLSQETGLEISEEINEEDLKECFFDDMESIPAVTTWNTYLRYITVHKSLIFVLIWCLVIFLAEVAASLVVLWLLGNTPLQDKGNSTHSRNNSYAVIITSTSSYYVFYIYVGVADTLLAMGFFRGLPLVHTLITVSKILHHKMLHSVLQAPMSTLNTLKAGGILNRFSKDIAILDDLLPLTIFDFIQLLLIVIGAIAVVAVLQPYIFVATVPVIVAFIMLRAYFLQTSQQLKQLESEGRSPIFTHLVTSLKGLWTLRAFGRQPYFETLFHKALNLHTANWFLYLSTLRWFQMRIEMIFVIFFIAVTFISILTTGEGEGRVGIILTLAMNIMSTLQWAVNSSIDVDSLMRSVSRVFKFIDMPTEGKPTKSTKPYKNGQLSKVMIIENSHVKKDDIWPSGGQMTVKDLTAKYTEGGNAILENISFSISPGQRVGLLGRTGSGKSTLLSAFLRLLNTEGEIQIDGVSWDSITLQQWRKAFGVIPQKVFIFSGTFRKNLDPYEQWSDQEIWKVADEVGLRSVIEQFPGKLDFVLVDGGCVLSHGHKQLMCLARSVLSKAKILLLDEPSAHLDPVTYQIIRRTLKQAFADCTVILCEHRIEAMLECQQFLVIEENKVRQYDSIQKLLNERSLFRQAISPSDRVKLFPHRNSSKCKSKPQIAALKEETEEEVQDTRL
T1 sequence (P13569 with tags, fused parts or gaps DEL508-508): as above

Turning to `Nc1ncnc2c1c(-c1cnc(C(F)(F)F)nc1)c(Br)n2Cc1cnn(-c2ccccc2F)c1` [Example 40, 6-bromo-7-{[1-(2-fluorophenyl)-1H-pyrazol-4-yl]methyl}-5-[2-(trifluoromethyl)pyrimidin-5-yl]-7H-pyrrolo[2,3-d]pyrimidin-4-amine], the 50% effective concentration (EC50) came out at 2.18 nM in assay [1] and 1.3 nM in assay [2].
For `Nc1ncnc2c1c(-c1cnc(C(F)(F)F)nc1)cn2Cc1cnn(-c2ccccc2F)c1` [Example 57, 7-((1-(2-fluorophenyl)-1H-pyrazol-4-yl)methyl)-5-(2-(trifluoromethyl)pyrimidin-5-yl)-7H-pyrrolo[2,3-d]pyrimidin-4-amine] the same measures were 28.8 nM and 65.9 nM.
The like results for `CC(c1cn(-c2ccccc2F)nn1)n1cc(-c2ccc(Cl)cc2)c2c(N)ncnc21` (stereo not shown) [Example 58, 5-(4-Chlorophenyl)-7-{1-[1-(2-fluorophenyl)-1H-1,2,3-triazol-4-yl]ethyl}-7H-pyrrolo[2,3-d]pyrimidin-4-amine] were, in that order, 232 nM and 28.9 nM.
For `COc1ccc(-c2cn(C(C)c3cnc(-c4ccccc4F)[nH]3)c3ncnc(N)c23)c(F)c1` (stereo not shown) [Example 59, 5-(2-Fluoro-4-methoxyphenyl)-7-{1-[2-(2-fluorophenyl)-1H-imidazol-5-yl]ethyl}-7H-pyrrolo[2,3-d]pyrimidin-4-amine] the same measures were 195 nM and 32 nM.
For the compound `CC(c1cnc(-c2ccccc2F)[nH]1)n1cc(-c2cc[nH]n2)c2c(N)ncnc21` (stereo not shown) [Example 60, 7-{1-[2-(2-Fluorophenyl)-1H-imidazol-5-yl]ethyl}-5-(1H-pyrazol-3-yl)-7H-pyrrolo[2,3-d]pyrimidin-4-amine], the EC50 stood at 45.3 nM in assay [1] and 80 nM in assay [2].
Consider `CC(c1cnc(-c2ccccc2F)[nH]1)n1cc(-c2ccc(C(F)(F)F)nc2)c2c(N)ncnc21` (stereo not shown) [Example 64, 7-{1-[2-(2-Fluorophenyl)-1H-imidazol-5-yl]ethyl}-5-[6-(trifluoromethyl)pyridin-3-yl]-7H-pyrrolo[2,3-d]pyrimidin-4-amine], for which the results for the half-maximal effective concentration (EC50) in assay [1] and in assay [2] were 80 nM and 80.3 nM, respectively.
`CC(c1cnc(-c2ccccc2F)[nH]1)n1cc(-c2ccc3[nH]ncc3c2)c2c(N)ncnc21` (stereo not shown) [Example 66, 7-{1-[2-(2-Fluorophenyl)-1H-imidazol-5-yl]ethyl}-5-(1H-indazol-5-yl)-7H-pyrrolo[2,3-d]pyrimidin-4-amine]: the EC50 amounted to 573 nM in assay [1] and 1320 nM in assay [2].
For `CC(c1cnc(-c2ccccc2F)[nH]1)n1cc(-c2cnc(N(C)C)nc2)c2c(N)ncnc21` (stereo not shown) [Example 67, 5-[2-(Dimethylamino)pyrimidin-5-yl]-7-{1-[2-(2-fluorophenyl)-1H-imidazol-5-yl]ethyl}-7H-pyrrolo[2,3-d]pyrimidin-4-amine] the same measures were 54.6 nM and 142 nM.
The like results for `Cc1ccc(-c2cn(C(C)c3cnc(-c4ccccc4F)[nH]3)c3ncnc(N)c23)cc1F` (stereo not shown) [Example 68, 5-(3-Fluoro-4-methylphenyl)-7-{1-[2-(2-fluorophenyl)-1H-imidazol-5-yl]ethyl}-7H-pyrrolo[2,3-d]pyrimidin-4-amine] were, in that order, 112 nM and 26.1 nM.
For `CC(c1cnc(-c2ccccc2F)[nH]1)n1cc(-c2ccc(-n3nccn3)cc2)c2c(N)ncnc21` (stereo not shown) [Example 70, 7-{1-[2-(2-Fluorophenyl)-1H-imidazol-5-yl]ethyl}-5-[4-(2H-1,2,3-triazol-2-yl)phenyl]-7H-pyrrolo[2,3-d]pyrimidin-4-amine] the same measures were 110 nM and 30.6 nM.
With `COc1cc(C#N)cc(-c2cn(Cc3cn(-c4ccccc4F)nn3)c3ncnc(N)c23)c1` [Example 72, 3-(4-Amino-7-{[1-(2-fluorophenyl)-1H-1,2,3-triazol-4-yl]methyl}-7H-pyrrolo[2,3-d]pyrimidin-5-yl)-5-methoxybenzonitrile], the EC50 was determined as 186 nM in assay [1] and 57 nM in assay [2].
For `Nc1ncnc2c1c(-c1ccc3c(c1)CCO3)cn2Cc1cn(-c2ccccc2F)nn1` [Example 74, 5-(2,3-Dihydro-1-benzofuran-5-yl)-7-{[1-(2-fluorophenyl)-1H-1,2,3-triazol-4-yl]methyl}-7H-pyrrolo[2,3-d]pyrimidin-4-amine] the same measures were 328 nM and 59 nM.
For `CCOc1ccc(-c2cn(Cc3cn(-c4ccccc4F)nn3)c3ncnc(N)c23)cc1F` [Example 75, 5-(4-Ethoxy-3-fluorophenyl)-7-{[1-(2-fluorophenyl)-1H-1,2,3-triazol-4-yl]methyl}-7H-pyrrolo[2,3-d]pyrimidin-4-amine] the same measures were 99.6 nM and 38 nM.
For `Nc1ncnc2c1c(-c1ccc(OC3CC3)cc1)cn2Cc1cn(-c2ccccc2F)nn1` [Example 77, 5-[4-(Cyclopropyloxy)phenyl]-7-{[1-(2-fluorophenyl)-1H-1,2,3-triazol-4-yl]methyl}-7H-pyrrolo[2,3-d]pyrimidin-4-amine] the same measures were 62.5 nM and 17.4 nM.
In the case of `COc1cc(C#N)ccc1-c1cn(Cc2cn(-c3ccccc3F)nn2)c2ncnc(N)c12` [Example 79, 4-(4-Amino-7-{[1-(2-fluorophenyl)-1H-1,2,3-triazol-4-yl]methyl}-7H-pyrrolo[2,3-d]pyrimidin-5-yl)-3-methoxybenzonitrile], the concentration giving a half-maximal response (EC50) was 75.2 nM in assay [1] and 150 nM in assay [2].
For `Nc1ncnc2c1c(-c1ccc3[nH]ccc3c1)cn2Cc1cn(-c2ccccc2F)nn1` [Example 81, 7-{[1-(2-Fluorophenyl)-1H-1,2,3-triazol-4-yl]methyl}-5-(1H-indol-5-yl)-7H-pyrrolo[2,3-d]pyrimidin-4-amine] the same measures were 379 nM and 338 nM.
With `Nc1ncnc2c1c(-c1ccc(OC(F)F)cc1)cn2Cc1cn(-c2ccccc2F)nn1` [Example 83, 5-[4-(Difluoromethoxy)phenyl]-7-{[1-(2-fluorophenyl)-1H-1,2,3-triazol-4-yl]methyl}-7H-pyrrolo[2,3-d]pyrimidin-4-amine], the concentration for a half-maximal effect (EC50) is 71.9 nM in assay [1] and 39.8 nM in assay [2].
For `COc1ccc(-c2cn(Cc3cn(-c4ccccc4F)nn3)c3ncnc(N)c23)cc1` [Example 85, 7-{[1-(2-Fluorophenyl)-1H-1,2,3-triazol-4-yl]methyl}-5-(4-methoxyphenyl)-7H-pyrrolo[2,3-d]pyrimidin-4-amine] the same measures were 73.4 nM and 56.9 nM.
The like results for `Cn1ncc2cc(-c3cn(Cc4cn(-c5ccccc5F)nn4)c4ncnc(N)c34)ccc21` [Example 86, 7-{[1-(2-Fluorophenyl)-1H-1,2,3-triazol-4-yl]methyl}-5-(1-methyl-1H-indazol-5-yl)-7H-pyrrolo[2,3-d]pyrimidin-4-amine] were, in that order, 539 nM and 659 nM.
With `COc1ccc(-c2cn(C(C)c3cn(-c4ccccc4F)nn3)c3ncnc(N)c23)c(OC)c1` (stereo not shown) [Example 87, 5-(2,4-Dimethoxyphenyl)-7-{1-[1-(2-fluorophenyl)-1H-1,2,3-triazol-4-yl]ethyl}-7H-pyrrolo[2,3-d]pyrimidin-4-amine], the half-maximal effective concentration (EC50) in assay [1] was found to be 102 nM; in assay [2], 55 nM.
As to `CSc1ccc(-c2cn(C(C)c3cn(-c4ccccc4F)nn3)c3ncnc(N)c23)cc1` (stereo not shown) [Example 88, 7-{1-[1-(2-Fluorophenyl)-1H-1,2,3-triazol-4-yl]ethyl}-5-[4-(methylsulfanyl)phenyl]-7H-pyrrolo[2,3-d]pyrimidin-4-amine], the results for the EC50 in assay [1] and in assay [2] were 41.3 nM and 38.2 nM, respectively.
As for `CC(c1cn(-c2ccccc2F)nn1)n1cc(-c2ccc(OC(F)F)cc2)c2c(N)ncnc21` (stereo not shown) [Example 89, 5-[4-(Difluoromethoxy)phenyl]-7-{1-[1-(2-fluorophenyl)-1H-1,2,3-triazol-4-yl]ethyl}-7H-pyrrolo[2,3-d]pyrimidin-4-amine], the EC50 in assay [1] worked out at 73.8 nM; in assay [2] it was 35.9 nM.
With `CSc1ccc(-c2cn(C(C)c3cn(-c4ccccc4F)nn3)c3ncnc(N)c23)c(F)c1` (stereo not shown) [Example 90, 5-[2-Fluoro-4-(methylsulfanyl)phenyl]-7-{1-[1-(2-fluorophenyl)-1H-1,2,3-triazol-4-yl]ethyl}-7H-pyrrolo[2,3-d]pyrimidin-4-amine], the EC50 is 45.5 nM in assay [1] and 34.8 nM in assay [2].
The like results for `CC(c1cn(-c2ccccc2F)nn1)n1cc(-c2ccccc2)c2c(N)ncnc21` (stereo not shown) [Example 94, 7-{1-[1-(2-Fluorophenyl)-1H-1,2,3-triazol-4-yl]ethyl}-5-phenyl-7H-pyrrolo[2,3-d]pyrimidin-4-amine] were, in that order, 361 nM and 140 nM.
The like results for `CC(=O)c1ccc(-c2cn(C(C)c3cn(-c4ccccc4F)nn3)c3ncnc(N)c23)cc1` (stereo not shown) [Example 96, 1-[4-(4-Amino-7-{1-[1-(2-fluorophenyl)-1H-1,2,3-triazol-4-yl]ethyl}-7H-pyrrolo[2,3-d]pyrimidin-5-yl)phenyl]ethanone] were, in that order, 98.6 nM and 133 nM.
For the compound `CC(c1cn(-c2ccccc2F)nn1)n1cc(-c2cccc(C(F)(F)F)c2)c2c(N)ncnc21` (stereo not shown) [Example 97, 7-{1-[1-(2-Fluorophenyl)-1H-1,2,3-triazol-4-yl]ethyl}-5-[3-(trifluoromethyl)phenyl]-7H-pyrrolo[2,3-d]pyrimidin-4-amine], the results for the EC50 in assay [1] and in assay [2] were 231 nM and 164 nM, respectively.

As a reminder, the EC50 is the concentration giving half of the maximal effect.
